# Reference: patent US20240082212A1, “USE OF MDMA FOR TREATMENT OF STRESS-RELATED DISORDERS” (priority 2022, published 2024)
# Entries after “also recorded” stand apart in the source; their conditions may differ.
# Key:
# [1] = Rat brain monoamine and metabolite concentrations 1 week after cumulative SC dosing; details: cumulative SC, 1 week after dosing
# CD (Sprague Dawley) rats = experiment: Rat telemetry: heart rate, blood pressure, body temperature, activity after cumulative SC dosing; assay type: in vivo
# Source text: Methods. A total of 42 adult male CD® (Sprague Dawley) rats (Charles River Laboratories) were surgically implanted with DSI radiotelemetry devices by personnel at Charles River Laboratories Raleigh, NC, per their test site SOPs. Telemetry devices supported continuous recording of temperature, activity, blood pressure and heart rate. Telemeterized rats were shipped to the Charles River Laboratories testing facility (Mattawan, MI) and acclimated to the environment for at least 1 week prior to experimentation. Animals were pair-housed in solid bottom cages with nonaromatic bedding. On the dosing day, animals were singly housed and then returned to the paired cohort following the dosing/telemetry recording phase. Diet (Lab Diet® Certified Rodent Diet #5CR4) and tap water via an automatic water system were available ad libitum, except during designated procedures. Temperature and humidity were maintained according to the Testing Facility SOP. Animals were randomized into treatment groups using a standard, by weight, measured value randomization procedure. Body weight was determined for each rat prior to dosing.
# As illustrated in the Table, a total of 36 rats were included in the study. The vehicle and 2 test article doses were administered in a volume of 1 mL/kg to each of 3 groups of n=12 telemeterized rats via subcutaneous injection four times on a given day, followed by neurobehavioral evaluations. This series was repeated 3 times on study. Each group received all 3 dose levels of the applicable test or control article in ascending order with a 1-week washout between dose levels.
# Mortality/cage side clinical observations were conducted for all study animals at least twice daily beginning upon receipt through termination, except on days of receipt and termination where frequency was at least once daily. Detailed clinical observations were conducted for all study animals prior to each of the four cumulative doses in a series. Individual body weights were conducted for all study animals at transfer, prior to randomization, on the day of dosing on each of the 3 cycles of dosing. The body weights recorded at transfer and prior to randomization are not reported but are maintained in the study file. Veterinary care was available throughout the course of the study, and animals were examined by the veterinary staff as needed based on clinical signs or other changes. All animals were provided with HydroGel the night prior to their respective dosing days to potentially mitigate any animal welfare issues related to fluid loss/dehydration.
# Telemetry monitoring was conducted for all animals 2 hours prior to dosing and through to 7.5 hours following the last (4th) cumulative dose of each series, which included continuous data collection of body temperature, activity, heart rate, and blood pressure (systolic, diastolic, and mean arterial) using telemetry.
# The total period of time over which the statistical analyses were conducted encompassed the entire dosing period for all animals (i.e., Dose 1 through 7.5 hour post-4th dose) in an effort to draw conclusions regarding the effects of the dosing procedure and cumulative changes by allowing comparisons between the cumulative dosing periods. The following statistical analyses were performed for each analysis segment.
# All time-series data comparisons conducted via statistical analysis are relative to the control treatment and are based on the LSMean values. Additionally, the change values used for the statistical analysis were calculated using a baseline of the 2 hours of pre-dose data, prior to the first compound injection of the series. The raw change values were analyzed.
# cortical neurons = experiment: Neurite outgrowth in embryonic rat cortical neuron cultures; assay type: cell-based; details: 3 days, vs 0.1% sterile water vehicle
# Source text: Female Wistar rats of 17 days gestation were killed by cervical dislocation and the fetuses (typically 6 to 8 in number) were removed from the uteri. Fetal brains were placed in ice-cold medium of Leibovitz (L15, Gibco, France). Cortex was dissected and meninges were carefully removed. The cortical neurons were dissociated by trypsinization (trypsin-EDTA, Gibco) in the presence of DNAse I (Roche, France). The reaction was stopped by addition of Dulbecco's Modified Eagle Medium (DMEM; Gibco) with 10% of fetal bovine serum (FBS; Gibco). The suspension was triturated with a 10-ml pipette and a 21-gauge needle syringe and centrifuged. The pellet of dissociated cells was resuspended in a medium consisting of Neurobasal (Gibco) supplemented with 2% B27 supplement (Gibco), 0.5 mM L-Glutamine (Gibco), and an antibiotic-antimycotic mixture. Viable cells were counted in a Neubauer cytometer and cells were seeded in 96-well plates (Costar) precoated with poly-L-lysine at 10,000 cells/well. […] Stock solutions were prepared in sterile water at 10 mM and stored at −20° C. until used. Further dilutions were prepared in culture in the medium on the day of the treatment. 0.1% Sterile water was present in all tested conditions.
# The experimental protocol was performed in two independent cultures (i.e., from two different pregnant rats). For each culture, each condition was tested in sextuplet (6 wells per condition per culture for a total of 12 wells per condition). […] After three days of plating and compound treatment (Day 3), cultures were fixed with paraformaldehyde in phosphate buffered saline at 4° C. (PBS, 4%, Sigma). All subsequent steps were performed at room temperature. Cells were successively permeabilized for 30 minutes using 0.1% triton, saturated with PBS containing 3% bovine serum albumin (BSA) and incubated for 1 hour with anti-beta III tubulin antibody (T5168, Sigma). […] Finally, nuclei were stained with 4′-6-diamidino-2-phenylindole (DAPI). After rinsing the cells with PBS, the plate was imaged and neurite networks were examined and analyzed using a High-Content Screening platform (CellInsight CXS, Thermo Scientific) with integrated Photometrics high-resolution fluorescent camera, Olympus objective (10×) and HCS Studio Cell Analysis Software. Approximately 2,000 neurons per well were analyzed using a validated cortex neuron outgrowth algorithm that utilizes parameters optimized for analysis of embryonic rat cortical neuron cultures. The HCS Studio Cell Analysis Software output included values for neurite total count (#), neurite total length (μm) and total number of branch points (#) for each of the 6 wells per culture. The evaluation of neurite outgrowth was performed using the average number of neurites per neuron (#), the average of total neurite length per neuron (μm) and the average number of branch points per neuron (#) across 12 wells. Data also was transformed to percent (%) of the average vehicle control value. Results were expressed as mean (±s.e.m.) of the transformed (% of vehicle control) data. Statistical analyses were performed on transformed percent of the average vehicle control data for each measure for each test article using one-way analysis of variance (Anova, StatView). Where applicable, Dunnett's test was used for multiple pairwise comparisons to the negative control (vehicle) condition. […] The level of significance was set at p value less than or equal to 0.05 (*p<0.05).
# [2] = telemetry, cumulative SC dosing, dose groups stated in the value
smiles,measurement,setting,value
"CNC(C)Cc1ccc2c(c1)OCO2 (single isomer, unassigned) [R-MDMA, R(−)-3,4-methylenedioxymethamphetamine]",striatal DA compared to the corresponding vehicle condition,[1]; 5 mg/kg/injection,significantly increased striatal DA
same,frontal cortex 5-HT (serotonin) compared to vehicle,"[1]; 5 mg/kg/injection, 5 mg/kg",did not reduce serotonin content in the frontal cortex
same,striatal HVA compared to the pooled vehicle condition,"[1]; 10 mg/kg/injection, n=2",significantly reduced striatal HVA
same,stepwise increases in blood pressure or heart rate with repeated doses,CD (Sprague Dawley) rats; 4 hourly SC injections during telemetry monitoring,no stepwise increases in blood pressure or heart rate were observed
same,hemodynamic parameters (systolic/diastolic/mean arterial blood pressures and heart rate),"CD (Sprague Dawley) rats; 4 hourly SC injections, cumulative doses 5, 10, or 20 mg/kg/day",dose-dependent blood pressure-increasing effects
same,body temperature response,"CD (Sprague Dawley) rats; R-MDMA 10 mg/kg/day, 4 hourly SC injections",hypothermic response
same,body temperature response,"CD (Sprague Dawley) rats; R-MDMA 20 mg/kg/day, 4 hourly SC injections",hyperthermic response
same,activity (implanted telemetry devices),"CD (Sprague Dawley) rats; all cumulative doses (5, 10, or 20 mg/kg/day)",Activity-increasing effects
same,recovery of blood pressure effects,CD (Sprague Dawley) rats; by the end of telemetry monitoring (7.5 h after 4th dose),only test article examined which produced recoverable effects by the end of telemetry monitoring
same,heart rate increase,"CD (Sprague Dawley) rats; maximum change, R-MDMA and racemic MDMA 10, 20 mg/kg/day, S-MDMA 5, 10 mg/kg/day, 4 hourly SC injections",up to +23%
same,peak body temperatures,"CD (Sprague Dawley) rats; overall mean magnitude of change, 4 hourly SC injections",38.6 °C
same,"Rank Order Blood Pressures (Systolic, Diastolic, and Mean Arterial) Effects",CD (Sprague Dawley) rats; [2],R-MDMA (10 mg/kg/day) < S-MDMA (5 mg/kg/day) < Rac.-MDMA (10 mg/kg/day); also recorded: R-MDMA (20 mg/kg/day) < S-MDMA (10 mg/kg/day) < Rac-MDMA (20 mg/kg/day); also recorded: R-MDMA (0 mg/kg/day) < R-MDMA (10 mg/kg/day) < R-MDMA (20 mg/kg/day); also recorded: R-MDMA (10 mg/kg/day) < S-MDMA (10 mg/kg/day) < Rac-MDMA (20 mg/kg/day)
same,Rank Order Body Temperature Effects,CD (Sprague Dawley) rats; [2],R-MDMA (10 mg/kg/day) < S-MDMA (5 mg/kg/day) < Rac.-MDMA (10 mg/kg/day); also recorded: R-MDMA (20 mg/kg/day) < S-MDMA (10 mg/kg/day) < Rac-MDMA (20 mg/kg/day); also recorded: R-MDMA (0 mg/kg/day) < R-MDMA (10 mg/kg/day) < R-MDMA (20 mg/kg/day); also recorded: R-MDMA (10 mg/kg/day) < S-MDMA (10 mg/kg/day) < Rac-MDMA (20 mg/kg/day)
same,Rank Order General Activity Effects,CD (Sprague Dawley) rats; [2],R-MDMA (10 mg/kg/day) < S-MDMA (5 mg/kg/day) < Rac.-MDMA (10 mg/kg/day); also recorded: R-MDMA (20 mg/kg/day) < S-MDMA (10 mg/kg/day) < Rac-MDMA (20 mg/kg/day); also recorded: R-MDMA (0 mg/kg/day) < R-MDMA (10 mg/kg/day) < R-MDMA (20 mg/kg/day); also recorded: R-MDMA (10 mg/kg/day) < S-MDMA (10 mg/kg/day) < Rac-MDMA (20 mg/kg/day)
same,Rank Order Heart Rate Measurement Effects,CD (Sprague Dawley) rats; [2],R-MDMA (10 mg/kg/day) < S-MDMA (5 mg/kg/day) < Rac.-MDMA (10 mg/kg/day); also recorded: R-MDMA (20 mg/kg/day) < S-MDMA (10 mg/kg/day) < Rac-MDMA (20 mg/kg/day); also recorded: R-MDMA (0 mg/kg/day) < R-MDMA (10 mg/kg/day) < R-MDMA (20 mg/kg/day); also recorded: R-MDMA (10 mg/kg/day) < S-MDMA (10 mg/kg/day) < Rac-MDMA (20 mg/kg/day)
same,neurite number (#),cortical neurons; 0.0001 μM,significantly increased
same,neurite number (#),cortical neurons; 10 μM,significantly increased
same,neurite total length (μm),cortical neurons; 10 μM,significantly increased
same,total number of branch points (#),cortical neurons; 10 μM,significantly increased
